Measurements from article PMC9960827, “Cloning and Characterization of Trypanosoma congolense and T. vivax Nucleoside Transporters Reveal the Potential of P1-Type Carriers for the Discovery of Broad-Spectrum Nucleoside-Based Therapeutics against Animal African Trypanosomiasis” (International Journal of Molecular Sciences, 2023).
Read-outs that look alike come from different tables or passages of the source.

Columns and labels:
[1] = tested on: T. congolense 6C3; assay: microbe, parasite or virus in culture; assay type: cell-based, Trypanosoma congolense
Method in brief: (§1)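 Reported figures represent means over a minimum of three separate-day experiments. In every experiment, EC50 is obtained by nonlinear fitting to a variable-slope sigmoid.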

[2] = molecular target: TcoAT1; assay type: cell-based, Trypanosoma congolense; conditions: for Ki: 0.05 µM [3H]-adenosine, 10 s, IC50 converted to Ki, read-out: Ki on the transport of [3H]-adenosine; for ΔG0: Gibbs free energy of binding, from Km or Ki; for δ(ΔG0): loss of Gibbs free energy of binding relative to the parent nucleoside
Method in brief: (§2)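 Transporter genes were expressed in an L. mexicana line lacking NT1 and NT2 (SUPKO), and 1 × 10^7 cells in HEPES/bicarbonate buffer pH 7.3 took up radiolabeled permeant through an oil layer, with or without inhibitor. Uptake was stopped with ice-cold unlabeled substrate or by centrifugation, and pellets were counted. IC50 against radiolabeled adenosine was converted to Ki by Cheng–Prusoff using the permeant Km.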

[3] = tested on: L. mexicana Cas9; assay: Resazurin drug sensitivity assay, LmexCas9; assay type: cell-based, Leishmania mexicana; conditions: read-out: LmexCas9 EC50
Method in brief: as §1

[4] = tested on: T. congolense 6C3; parameters: method as in Hulpia et al. [38]; conditions: values marked *; ref Hulpia et al. [38]; cited from earlier work
[5] = tested on: T.b.b. B48; parameters: method as in Hulpia et al. [38]; conditions: compound marked *; ref Hulpia et al. [38]; cited from earlier work
[6] = tested on: T. b. brucei; conditions: also CNS stage; oral and intraperitoneal administration; cited from earlier work
[7] = tested on: T. vivax; parameters: method as in Mabille et al. [69]; conditions: added for comparison only; ref Mabille et al. [69]; cited from earlier work
[8] = tested on: L. mexicana SUPKO; assay: microbe, parasite or virus in culture; assay type: cell-based, Leishmania mexicana
Method in brief: as §1

[9] = tested on: L. mexicana SUPKO+TvxNT3; assay: microbe, parasite or virus in culture; assay type: cell-based, Leishmania mexicana; conditions: read-out: SUPKO+TvxNT3 EC50
Method in brief: as §1

[10] = tested on: L. mexicana SUPKO+TcoAT1; assay: microbe, parasite or virus in culture; assay type: cell-based, Leishmania mexicana; conditions: for EC50: read-out: SUPKO+TcoAT1 EC50
Method in brief: as §1

[11] = tested on: T. evansi; parameters: method as in Hulpia et al. [38]; conditions: compound marked *; ref Hulpia et al. [38]; cited from earlier work
[12] = molecular target: T. congolense adenosine transporter; assay: [3H]-adenosine uptake and its inhibition in T. congolense IL3000 bloodstream forms; assay type: cell-based, Trypanosoma congolense; conditions: for Ki: 0.05 µM [3H]-adenosine, 30 s, IC50 converted to Ki, read-out: Ki on the transport of [3H]-adenosine
Method in brief: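 Bloodstream-form T. congolense IL3000 (1 × 10^7 cells) in HEPES/bicarbonate buffer pH 7.3 took up [3H]-adenosine over a set interval, with or without inhibitor, ending by ice-cold unlabeled substrate stop or centrifugation through oil. Pellet radioactivity gave IC50 by sigmoid fit; Ki followed by Cheng–Prusoff using adenosine Km.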

[13] = tested on: human embryonic kidney (HEK) cells; assay: Resazurin toxicity assay on human embryonic kidney cells; assay type: cell-based
Method in brief: as §1

[14] = tested on: T.b.b. B48; assay: Alamar Blue (resazurin) assay, T. b. brucei B48; assay type: cell-based, Trypanosoma brucei brucei
Method in brief: as §1

[15] = tested on: T. vivax; assay: T. vivax EC50 (from Mabille et al.); assay type: cell-based, Trypanosoma vivax; conditions: from Table 8 data
[16] = tested on: T. congolense IL3000; parameters: method as in Hulpia et al. [38]; conditions: values marked *; ref Hulpia et al. [38]; cited from earlier work
[17] = tested on: T. congolense IL3000; assay: Alamar Blue (resazurin) assay, T. congolense IL3000; assay type: cell-based, Trypanosoma congolense
Method in brief: as §1

[18] = molecular target: TvxNT3 (Trypanosoma vivax, UniProt F9WV62); assay: cell-based; assay type: cell-based; conditions: for δ(ΔG0): difference in ΔG0 relative to the parent purine (adenosine or inosine)
Method in brief: as §2

[19] = tested on: T. equiperdum; parameters: method as in Hulpia et al. [38]; conditions: compound marked *; ref Hulpia et al. [38]; cited from earlier work
[20] = tested on: T. brucei wild type; conditions: cited from earlier work
[21] = tested on: T. congolense IL3000-based cell line expressing TbAT1; assay: Resazurin drug sensitivity assay, T. congolense IL3000 expressing TbAT1; parameters: species or system Trypanosoma congolense; conditions: three independent clones, p < 0.0001
Procedure: EC50 values were determined by plotting to an equation for a sigmoid curve with variable slope (GraphPad Prism 8). All values were the average of at least three independent determinations on different days.

[22] = tested on: T. brucei TbAT1-KO; conditions: cited from earlier work
[23] = molecular target: T. b. brucei P1 (TbP1/NT2); conditions: cited from earlier work
[24] = tested on: T. brucei cells; parameters: method as in PMID 30475806; conditions: T. brucei cells treated with the drug; cited from earlier work

TvxNT3, sequence (F9WV62 entry or part of it): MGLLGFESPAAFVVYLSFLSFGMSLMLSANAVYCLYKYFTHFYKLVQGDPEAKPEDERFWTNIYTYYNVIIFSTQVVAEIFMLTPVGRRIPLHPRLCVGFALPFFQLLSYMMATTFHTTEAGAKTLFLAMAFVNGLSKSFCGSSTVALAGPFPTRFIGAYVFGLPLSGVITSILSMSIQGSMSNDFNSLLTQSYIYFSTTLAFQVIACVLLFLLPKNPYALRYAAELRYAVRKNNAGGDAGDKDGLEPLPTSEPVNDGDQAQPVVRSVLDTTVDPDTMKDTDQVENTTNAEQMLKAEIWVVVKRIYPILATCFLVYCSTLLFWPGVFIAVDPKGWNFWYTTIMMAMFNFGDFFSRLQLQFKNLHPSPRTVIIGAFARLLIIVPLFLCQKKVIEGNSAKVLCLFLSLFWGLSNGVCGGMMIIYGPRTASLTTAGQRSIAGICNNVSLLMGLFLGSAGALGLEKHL

## Nc1ncnc2c1ccn2C1OC(CO)CC1O (stereo not shown) [FH7429_d, 3′-deoxytubercidin]
[1]; resistance factor = EC50 (test strain)/EC50(control strain)
  T. congolense 6C3 RF: 0.91
[2]
  Ki: 810 ± 60 µM
  ΔG0: -18.0 kJ/mol
[3]; resazurin, promastigotes
  EC50: 15.1 ± 1.7 µM
[4]
  EC50: 19 ± 2 nM
[5]
  EC50: 250 ± 20 nM
[6]
  outcome in T. b. brucei mouse model: curative
[7]
  EC50: 3.48 ± 0.09 µM
[8]; Resistance Factor = EC50(SUPKO)/EC50(Cas9)
  SUPKO RF (Cas9): >6.63
[8]; resazurin, promastigotes, read-out: SUPKO EC50
  EC50: > 100 µM
[9]; resazurin, promastigotes
  EC50: > 100 µM
[10]; Resistance Factor relative to SUPKO
  SUPKO+TcoAT1 RF (SUPKO): >1.53
[10]; resazurin, promastigotes
  EC50: 65.3 ± 7.6 µM
[11]
  EC50: 17 ± 2 nM
[12]
  Ki: 319 ± 93 µM
[12]; calculated from Km or Ki
  ΔG0, Gibbs free energy of interaction: -19.9 kJ/mol
[13]; resazurin, 96 well plates, read-out: HEK EC50
  EC50: > 200 µM
[13]; selectivity index = EC50 (HEK cells)/EC50 (T. equiperdum)
  SI T. equiperdum: >76,000
[13]; selectivity index = EC50 (HEK cells)/EC50 (T. evansi)
  SI T. evansi: >11,800
[14]; against T. b. brucei B48
  fold more potent than tubercidin: 17.2 fold
[15]
  fold higher EC50 against T. vivax compared to T. congolense: 10–165 fold
[16]
  EC50: 21 ± 1 nM
[17]; against T. congolense
  fold more potent than tubercidin: 150 fold
[18]; 50 nM [3H]-adenosine, 90 s, IC50 converted to Ki, read-out: Ki on the transport of [3H]-adenosine
  Ki: 388 ± 13 µM
[18]; Gibbs free energy of interaction, from Km or Ki
  ΔG0: -19.5 kJ/mol
[19]
  EC50: 2.6 ± 0.6 nM

## Nc1ncnc2c1ccn2[C@@H]1O[C@H](CO)[C@@H](O)[C@H]1O [Tubercidin, 7-deazaadenosine]
[20]
  EC50: 150 ± 30 nM
[1]; Trypanosoma congolense, diminazene resistant strain, resazurin, read-out: T. congolense 6C3 EC50
  EC50: 1830 ± 390 nM
[2]
  Ki: 754 ± 54.3 µM
  ΔG0: -17.8 kJ/mol
  δ(ΔG0): 18.58 kJ/mol
[2]; listed as tubercidin
  δ(ΔG0): 18.6 kJ/mol
[21]
  effect of TbAT1 expression on sensitivity: highly significant sensitization
[3]; Leishmania mexicana
  EC50: 0.44 ± 0.06 µM
[8]; Leishmania mexicana, read-out: SUPKO EC50, resazurin, promastigotes
  EC50: > 100 µM
[9]; Leishmania mexicana
  EC50: > 100 µM
[10]; Leishmania mexicana
  EC50: > 100 µM
[12]
  Ki: 403 ± 120 µM
[14]; Trypanosoma brucei, read-out: T.b.b. B48 EC50
  EC50: 4.3 ± 1.3 µM
[22]
  EC50: 4.3 ± 1.3 µM
[17]; Trypanosoma congolense, read-out: T. congolense IL3000 EC50
  EC50: 3.16 ± 0.5 µM
[18]
  δ(ΔG0): -13.17 kJ/mol
[18]; listed as tubercidin
  δ(ΔG0): 13.2 kJ/mol
[23]; T. b. brucei bloodstream forms, read-out: Tbb P1 Ki
  Ki: 78 ± 6.4 µM
[23]
  Tbb P1 ΔG0: -23.4 kJ/mol

## Nc1nc(N)nc(Nc2ccc([As]3SCC(CO)S3)cc2)n1 (stereo not shown) [melarsoprol]
[24]
  cells bearing conjoined nuclei and double kinetoplasts: > 10%
